Test results from US4500533A, “2,4,5-Triaryl pyrimidines and a method of treating pain, fever, thrombosis, inflammation and arthritis” (Eli Lilly and Company, priority 1983, dated 1985).

How the values were obtained:
Mouse Writhing = assay: mouse writhing assay (analgesic activity); type: in vivo, Cox standard strain albino male mice; settings: po, p.o. by gavage in corn oil-acacia emulsion (5%), three hours before i.p. acetic acid (0.60 percent), 10 minute observation starting five minutes after acetic acid, read-out: Mouse Writhing ED50 (dose required to inhibit induced writhing by fifty percent)
Excerpt: The analgesic activity of a number of compounds provided by this invention has been determined in the standard mouse writhing assay. Writhing, which is characterized by contraction of the abdominal musculature, extension of the hindlegs, and rotation of the trunk, was induced in Cox standard strain albino male mice. The mice, weighing 18-24 grams, were fasted overnight and given the test compound by gavage in a corn oil-acacia emulsion (5%) three hours before writhing was induced by the intraperitoneal administration of acetic acid (0.60 percent). Each treatment group consisted of five mice. The total number of writhes for the treatment group was determined during a 10 minute observation starting five minutes after acetic acid administration. […] Table I which follows presents typical test results obtained with certain of the compounds of this invention. The results in the mouse writhing assay are presented as the effective oral (p.o.) dose in mg./kg. of the tested compound required to inhibit induced writhing in the test animals by fifty percent (ED50).

[1] = system: adjuvant-induced arthritis; assay: Established adjuvant-induced arthritis test in rats (uninjected hind paw swelling); type: in vivo, male Lewis-Wistar rats; settings: AUC of mean uninjected paw volumes

| Structure (SMILES) | ED50 (Mouse Writhing) [mg/kg] | % Inhibition of Uninjected Paw Volume Inflammation, Days 14 through 30 ([1]; 25 mg./kg. p.o. × 15, daily days 15-29, corn oil-acacia emulsion) [%] | % Inhibition of Uninjected Paw Volume Inflammation, Days 14 through 30 ([1]; 10 mg./kg. p.o. × 15, daily days 15-29, corn oil-acacia emulsion) [%] |
| --- | --- | --- | --- |
| COc1ccc(-c2cnc(-c3ccc(Cl)cc3)nc2-c2ccc(OC)cc2)cc1 [Example 1, 2-(4-Chlorophenyl)-4,5-bis(4-methoxyphenyl)pyrimidine] | 0.99 | 74 | – |
| COc1ccc(-c2cnc(-c3ccc(F)cc3)nc2-c2ccc(OC)cc2)cc1 [Example 2, 2-(4-Fluorophenyl)-4,5-bis(4-methoxyphenyl)pyrimidine] | 1.48 | – | 70 |
